This is an account of results in patent US8969515B2, “Pharmaceutical composition for treating hyperproliferative diseases” (OOO “MetaMax”, priority 2011, dated 2015).

The subject of series [1] is cell lines HEK293 and A549. Put plainly: Cell cycle arrest by chemotherapeutics alone, preliminary experiments. It is filed as cell-based, human. To be noted: 100 nMol. From the text: This concentration for all drugs was 100 nMol.
A further series has as its system HCT-116 cells xenograft. Put plainly: Anti-tumor activity in vivo, local injection, HCT-116 xenograft. The arrangement: species or system mice. To be noted: 0.1 mg group, 28 days. The source says: The tumor nodule of HCT-116 cells is characterized by a large in size and the presence of ulceration. In the control group, on day 28 of the experiment the average tumor volume reached 679 mm^3, 3 mice died during the experiment. In the test group, a lower rate of tumor growth was observed (FIG. 32), on day 28 of the experiment the average tumor volume was 225.4 mm^3, the number of dead animals in the experimental group was 2.

A further series relates to A549 cells xenograft. Put plainly: Anti-tumor activity in vivo, local injection, A549 xenograft. Conditions: 24 days. The source says: 10 mice constituted the 1st treatment group. […] The experiment lasted 24 days.
In the experimental groups, we observed a reduced tumor growth and on day 6 after the begin of administration of the peptide there could be observed a significant reduction in tumor volume in experimental groups compared with the control ones (FIG. 32). The experiment lasted 24 days. During this time, we performed 10 injections of the chimeric peptide in the experimental groups. In the control group, on day 24 of the experiment, the average tumor volume in mice was 95.24 mm^3, one mouse died. In the first experimental group (administered dose of peptide—0.1 mg) average tumor volume was 39.29 mm^3, one mouse died.

The next series has as its system cyclin B. Kind of series: Cyclin B mRNA expression by quantitative RT-PCR. It is filed as cell-based, human. The protocol: FIG. 29. Study of cyclin B synthesis in HEK293 cell culture by adding peptide Tat_p16 (30 µMol). […] X-axis—incubation time (hours), Y-axis—abstract units.
It is known that the phosphorylation of pRb is an initiating step for activation of expression of cyclins A and B and for transition of cells from G1 into S phase of the cell cycle. Quantitative PCR method was used to study mRNA expression level of cyclin B when exposed to Tat_p16 peptide. For this purpose during experiment on synchronized culture with adding Tat_p16 chimeric peptide at a concentration of 40 µmol, we performed a parallel selection of cells from samples for RNA extraction, whereas a part of the cells served the determination of the cell cycle phases. Further processing of the material involved RNA isolation and quantitative PCR reaction setting (RT-PCR) carried out according to the protocol.

Series [2] has as its system HEK293 cell line synchronized in G0/G1 phase. Put plainly: Cell cycle phase analysis by flow cytofluorometry after sync block removal. Conditions: for antiproliferative effect on cell cycle: peptide added at sync block removal. The class given is cell-based, human. The method, then: (§1) In experiments with cell lines we evaluated the distribution of cells according to the phases of the cell cycle and calculated the proliferation index. For analysis we used software FloMax 2.0 (built-in option of flow cytofluorimenter) and software Modfit LT 3.0 (FIGS. 7 and 8). We also carried out the determination of the proportion of cells entered the apoptosis based on size of “pre-G1-hypodiploid” peak on DNA histogram (FIG. 8 (B)). Experiments were performed both on cell lines synchronized in phase G1/S, and on non-synchronized cell lines Raji, Jurkatt, A549, HEK 293, MCF-7.
The study of the effects of peptides was conducted on transplantable cell cultures. In order to study alterations in the expression of specific intracellular regulators and in order to improve visualization of the experiments, the cells were pre-synchronized.
At the first stage of the evaluation of the obtained results, we investigated the effect of internalizable chimeric peptides with different active centers—p16INK4a and p21/CIP/KIP. The chimeric peptide to be studied was added at the moment of the sync block removal. Cell cycle analysis was performed every 2 hours for 24 hours after removal of the block.
We investigated chimeric peptides having p16INK4a active center and having different types of vectors, Tat and pAntp. […] As is seen from FIG. 18, plots of dependencies of the number of cells in the cell cycle phases are similar in appearance for the two types of peptide vectors carrying p16 fragment. In the control sample—synchronized cell culture without the addition of the study peptide, the number of cells in G0/G1-phase starts to decline as early as 2 hours after removal of the synch block, and 10 hours later we recorded the lowest number of cells in G0/G1-phase. S-phase in the control samples starts to increase 4-6 hours after sync block removal and reaches a maximum after 12 hours.

The next series deals with HEK293 cell line. Put plainly: Apoptosis level (hypodiploid peak) in HEK293 culture. It is filed as cell-based, human. Conditions: synchronized culture. The protocol: FIG. 16. Mean apoptosis values for synchronized HEK293 cell culture in a series of experiments using internalized peptides with active centers p21 and p16. Incubation time with peptide is 24 hours. Concentration of peptides is 40 µMol. Y-axis—percentage of apoptotic particles.
FIG. 20. Mean apoptosis values in synchronized culture of HEK293 after addition of chimeric peptides Tat_p16 and pAntp p16. […] The peptides were added at the moment of synchronization block removal. The effect was evaluated after 24 hours.
FIG. 21. Change in the level of apoptosis in the cell culture depending on the incubation time with peptides Tat_p16 and pAntp_p16 for synchronized 293 cell line (A) and synchronized A549 cell line (B).
as §1

In series [3] the test system is cell lines A549, HEK293 and MCF-7. Put plainly: Apoptosis level with pAntp chimeric peptide versions. It is filed as cell-based, human. To be noted: 40 μM, lines A549 and HEK 293, non-synchronized and synchronized. The protocol:
FIG. 24. Effect of chimeric peptides containing a p16INK4a fragment on apoptosis level in non-synchronized and synchronized cell line A549. Peptide concentration is 40 µM. Y-axis—percentage of apoptotic bodies.
FIG. 25. Effect of chimeric peptides containing a p16INK4a fragment on apoptosis level in non-synchronized and synchronized HEK293 cell line. Peptide concentration is 40 µM. Y-axis—percentage of apoptotic bodies.
FIG. 26. Comparisons of cytotoxic effect of chimeric peptides pAntpp16 (1, 2) on HEK293 cell culture.
In the next phase of work, we assessed the dependence of the cytotoxic effect exerted by the chimeric test peptides with the peptide vector pAntp. An experiment to determine the level of apoptosis was carried out on the cell lines A549 (human, lung carcinoma), HEK293 (human, embryonic kidney) and MCF-7 (human, mammary adenocarcinoma). Cells were cultured by standard techniques in DMEM medium containing 10% of FSB. A part of the cells was previously synchronized using the method of double thymidine block and synchronization method with the depleted media (see “Experiment. Parts”). The chimeric test peptides pAntp-p16 (1 and 2) were added to the culture medium. As a negative control we used cells treated with the peptide pAntp_zam (FIGS. 24, 25).

Series [4] has as its system HEK293 cell line, non-synchronized and synchronized. Put plainly: Effect of pAntp chimeric peptide versions on cell cycle, HEK293. It is filed as cell-based, human. To be noted: 40 μM; for changes of the cell cycle phases: synchronized and nonsynchronized cells. The protocol: FIG. 22. Effect of chimeric peptide pAntp containing a p16INK4a fragment, on the cell cycle. A—non-synchronized cell line HEK293, B—cell line HEK293 synchronized in S-phase. Peptide concentration is 40 µM. The peptides are pAntp and three further peptides 1-p16, 2-p16, and 3-p16, wherein peptides 1-p16 and 2-p16 are synthetic peptides differing by the location of the 20 amino acids fragment of p16 relative to pAntp; and peptide 3-p16 is a genetically engineered peptide comprising a 50 amino acids insert of protein Antp.
We used three versions of the chimeric peptide containing p16INK4a active center and pAntp vector. These chimeric peptides differ by location of the active center relative to N-C termini of the molecule and the presence of an insertion of 44 amino acids ([…], SEQ ID NO: 9) for peptide 3 produced by genetic engineering method (Table 1).
In the study of the properties of these peptides we also investigated synchronized and nonsynchronized cell cultures. In a synchronized culture, the peptide was added at the time of sync block removal and in the nonsynchronized at a monolayer density (for adhesion cultures) of ~50%.

The mark [5] stands for this setting: after sync block removal, 40 μM.

Regarding `O=c1[nH]cc(F)c(=O)[nH]1` [5-fluorouracil], in series [1], the “cell cycle arrest phase” value is reported as “G0/G1-phase arrest”.
Consider `COc1cc([C@@H]2c3cc4c(cc3[C@@H](O[C@@H]3O[C@@H]5CO[C@@H](C)O[C@H]5[C@H](O)[C@H]3O)[C@H]3COC(=O)[C@H]23)OCO4)cc(OC)c1O` [Etoposide], for which the “cell cycle arrest phase” value in series [1] is given as “S-phase arrest”.
Consider `CC(=O)O[C@H]1C(=O)[C@@]2(C)[C@H]([C@H](OC(=O)c3ccccc3)[C@]3(O)C[C@H](OC(=O)[C@H](O)[C@@H](NC(=O)c4ccccc4)c4ccccc4)C(C)=C1C3(C)C)[C@]1(OC(C)=O)CO[C@@H]1C[C@@H]2O` [Taxol], for which, in series [1], the “cell cycle arrest phase” value is “G2/M-phase arrest”.
As to `CC[C@H](C)[C@H](NC(=O)[C@H](CCCCN)NC(=O)[C@@H](NC(=O)[C@H](CCC(N)=O)NC(=O)[C@H](CCCNC(=N)N)NC(=O)[C@H](CO)NC(=O)[C@H](CCCNC(=N)N)NC(=O)[C@H](C)NC(=O)CNC(=O)[C@H](C)NC(=O)[C@H](CCCNC(=N)N)NC(=O)[C@H](Cc1c[nH]cn1)NC(=O)[C@H](CC(C)C)NC(=O)[C@@H](NC(=O)[C@@H](NC(=O)[C@H](CC(C)C)NC(=O)[C@@H](NC(=O)[C@H](CC(=O)O)NC(=O)[C@H](CC(C)C)NC(=O)[C@H](Cc1ccccc1)NC(=O)CNC(=O)[C@H](CCC(=O)O)NC(=O)[C@H](CCCNC(=N)N)NC(=O)[C@H](C)NC(=O)[C@H](C)NC(=O)[C@@H](N)CC(=O)O)[C@@H](C)O)C(C)C)C(C)C)[C@@H](C)CC)C(=O)N[C@@H](Cc1c[nH]c2ccccc12)C(=O)N[C@@H](Cc1ccccc1)C(=O)N[C@@H](CCC(N)=O)C(=O)N[C@@H](CC(N)=O)C(=O)N[C@@H](CCCNC(=N)N)C(=O)N[C@@H](CCCNC(=N)N)C(=O)N[C@@H](CCSC)C(=O)N[C@@H](CCCCN)C(=O)N[C@@H](Cc1c[nH]c2ccccc12)C(=O)N[C@@H](CCCCN)C(=O)N[C@@H](CCCCN)C(=O)O` [pAntp_p16(2)], the “number of dead animals” value in the series with HCT-116 cells xenograft was determined as 2. Further, the mice died entry in the series on A549 cells xenograft (0.1 mg group) is “one”; in the series with A549 cells xenograft (0.2 mg group) it was “no animals died”.
In the case of “DAAREGFLDTLVVLHRAGARS YGRKKRRQRRRG (DAAREGFLDTLVVLHRAGARSYGRKKRRQRRRG; Tat_p16, chimeric peptide; listed as Homo Sapiens)”, the “effect on expression of cyclin B” value in the series on cyclin B (HEK293 synchronized in G0/G1, Tat_p16 40 μmol) is recorded as “inhibits the expression of B cyclin”. Moreover, the “incubation time after which cyclin B expression level increases” value with cyclin B (control maximum at 12 hours) worked out at 16 h. Also, in series [2] (setting [5]), the “time at which G0/G1 phase starts to decrease” value is “simultaneously with G0/G1-phase in control sample”; the “time at which S-phase begins to increase” value came to 12 h; the “time of maximum S-phase” value stood at 14 h; the “time of maximum difference of cell cycle phases between control and test samples” value is recorded as “about 12 hours”. The “time of maximum difference of cell cycle phases between control and test samples” value in series [2] (after sync block removal, 40 μM, listed as Tatp16) was 12 h. In series [2] (40 μM), the “antiproliferative effect on cell cycle” value is on record as “arrest of G1-S transition”. The “time at which increase in G2-phase occurs” value in series [2] (same experiment as cyclin B RT-PCR) worked out at 16 h.
Turning to YGRKKRRQRRRGPVKRRLDL [Tat_p21], in the series on HEK293 cell line, the “dependence of the level of apoptosis on the incubation time” value is on record as “has not been observed”. Also, the “mean apoptosis values versus control samples” value with HEK293 cell line (24 hours, 40 μMol) is reported as “no significant differences”. For the same compound, the “time of maximum difference of cell cycle phases between control and test samples” value in series [2] (setting [5]) fell in the range of 10 to 12 h. Moreover, the “time at which G2/M-phase level reaches a maximum value” in series [2] (average) was in the range of 18 to 20 h. The “antiproliferative effect on cell cycle” value in series [2] (40 μM) is on record as “arrest of transition of cells from S-phase in G2/M-phase”. The “level of S-phase remaining over 14 hours of incubation” value in series [2] (test sample, over 14 hours) is on record as 65-70%.
As for “pAntp_p16(1): chimeric peptide, p16INK4a fragment at C-terminus, pAntp at N-terminus (SEQ ID NO: 10), solid phase synthesis (RQIKIWFQNRRMKWKKDAAREGFLDTLVVLHRAGAR; pAntp_p16(1), chimeric peptide; listed as Homo Sapiens)”, in series [3], the “effect on the level of apoptosis” value is on record as “markedly increases”. Also, the “changes of the cell cycle phases” value in series [4] is “fails to induce the expected cytostatic effect”. For the same compound, the “anti-proliferative effect on cells” value in series [4] (summary of HEK293 and A549 experiments) is reported as “does not have an anti-proliferative effect”.
For “pAntp_zam: control peptide with p16INK4a sequence (amino acids 82-102) with substitution of tyrosine by alanine at position 92 (RQIKIWFQNRRMKWKKDAAREGFLDALVVLHRAGAR; pAntp_zam, chimeric peptide; listed as Homo Sapiens) [reference compound]”, the “effect on the level of apoptosis” value in series [3] is reported as “not affected”. For the same compound, the “changes of the cell cycle phases” value in series [4] is on record as “do not differ from the control”.
